Reference: patent publication US20250059198A1, “BRM DEGRADING COMPOUNDS AND ASSOCIATED METHODS OF USE” (Arvinas Operations, Inc., priority 2021, published 2025)

Molecular target: T1, BRM (Homo sapiens, UniProt P51531)
T1 construct: Western Blot Screen of BRM Degradation in SW1573 Cells; endogenous in cells; host or cells: SW1573 cells
Experiment: BRM degradation (Dmax and DC50) in SW1573 cells, Western blot screen / In-Cell Western screen
Format: cell-based
Settings: overnight (18-20 hours) treatment; for Dmax: read-out: Dmax (%)** (% degraded)
Experimental: (§1) To assess BRM degradation (Dmax and DC50) cells were seeded at 8000/well in 96-well black/clear-bottom plates in 180 μL DMEM growth media (containing 1% pen-strep, 1% HEPES and 10% FBS) per well. Plates were incubated overnight to allow adhesion. The next morning cells were treated by adding 20 μL of 10× target compound concentration (1% DMSO) to appropriate wells and returned to incubator for overnight (18-20 hours). The final DMSO concentration was 0.1%.
For lysing, adherent cells were washed once with 100 μL of DPBS. Cells were lysed in 40 μL of 1×RIPA+HALT protease inhibitor on ice for 10 minutes and frozen until use at −80° C. Thawed lysates were cleaned by filtration in 1.2 µm filter plates, or alternatively, were spun clean at 2300 g at 4° C. for 30 minutes.
For blotting, for each Western sample 30 μL of lysate was added to 10 μL of 4× LDS sample buffer, then denatured at 95° C. for 5 minutes in the thermal cycler and placed on ice. Samples were loaded on 4-15% Tris/Glycine gels and run for 25 minutes at 250 constant volts in 1× Tris/Glycine buffer with 4 μL of ladder and 12 μL of each sample loaded for each blot. Protein was transferred from gels to NC with BioRad Turbo dry-transfer unit with the Turbo/midi default program. All blots were rinsed with ddH2O and blocked for 1 hour at room temperature in 5% BSA in TBST (0.1%) on rocker. Blots were exposed to primary antibody in 5% BSA in TBST (0.1%) overnight at 4° C. on rocker (1:1000 for BRM (Cell Signaling Tech. cat #11966) and 1:2000 for alpha-tubulin (Cell Signaling Tech. cat #3873), a control protein. Blot was washed with TBST (0.1%) three times for 5 minutes on rocker at room temperature. Secondary antibody was added, and blots were incubated on a room temperature rocker for 1 hour with 1:18,000 anti-rabbit-HRP and/or anti-mouse-HRP in 5% BSA in TBST (0.1%). Blots were washed three times in TBST (0.1%) for 5 minutes at room temperature on the rocker. Signal was developed with Femto Maximum Sensitivity substrate for 4 minutes and blots read on ChemiDoc™.
as §1, with “DC50),” for “DC50)”, “10×” for “10× target”, “compound” for “compound concentration”
For processing, the plates were removed from incubator, the media was removed, and immediately 200 μL of cold (4° C.) DPBS was added to all wells. DPBS was then removed, and 50 μL of 4% paraformaldehyde (PFA) in DPBS (4° C.) was added to all wells, and the plates were incubated at room temperature for 20 minutes. PFA was then removed, and 200 μL of TBS-T containing 0.5% Triton X-100 was added to all wells, and the plates were incubated at room temperature for 30 minutes. TBS-T containing 0.5% Triton X-100 was then removed, and 50 μL of Li-Cor blocking solution was added, and the plates were incubated at room temperature for a minimum of one hour. The blocking solution was removed, and 50 μL of Li-Cor blocking solution containing primary antibody cocktail was added (1:1000 for BRM (Cell Signaling Tech. cat #11966) and 1:2000 for alpha-tubulin (Sigma cat #T6074), a control protein. Plates were then placed in cold room until the next day.
The next day plates were washed three times with TBS-T, 200 μL per well. Fifty […] of secondary antibody cocktail in LI-COR blocking solution (anti-rabbit_800 nm and anti-mouse_680 nm) was added to all wells (diluted 1:5000). The plates were incubated at room temperature for at least one hour while protected from light. The plates were washed twice with TBS-T, 200 μL per well.
To read each plate TBS-T was removed, and each plate was inverted tapped on a paper towel. […]

T1 sequence (P51531 whole entry): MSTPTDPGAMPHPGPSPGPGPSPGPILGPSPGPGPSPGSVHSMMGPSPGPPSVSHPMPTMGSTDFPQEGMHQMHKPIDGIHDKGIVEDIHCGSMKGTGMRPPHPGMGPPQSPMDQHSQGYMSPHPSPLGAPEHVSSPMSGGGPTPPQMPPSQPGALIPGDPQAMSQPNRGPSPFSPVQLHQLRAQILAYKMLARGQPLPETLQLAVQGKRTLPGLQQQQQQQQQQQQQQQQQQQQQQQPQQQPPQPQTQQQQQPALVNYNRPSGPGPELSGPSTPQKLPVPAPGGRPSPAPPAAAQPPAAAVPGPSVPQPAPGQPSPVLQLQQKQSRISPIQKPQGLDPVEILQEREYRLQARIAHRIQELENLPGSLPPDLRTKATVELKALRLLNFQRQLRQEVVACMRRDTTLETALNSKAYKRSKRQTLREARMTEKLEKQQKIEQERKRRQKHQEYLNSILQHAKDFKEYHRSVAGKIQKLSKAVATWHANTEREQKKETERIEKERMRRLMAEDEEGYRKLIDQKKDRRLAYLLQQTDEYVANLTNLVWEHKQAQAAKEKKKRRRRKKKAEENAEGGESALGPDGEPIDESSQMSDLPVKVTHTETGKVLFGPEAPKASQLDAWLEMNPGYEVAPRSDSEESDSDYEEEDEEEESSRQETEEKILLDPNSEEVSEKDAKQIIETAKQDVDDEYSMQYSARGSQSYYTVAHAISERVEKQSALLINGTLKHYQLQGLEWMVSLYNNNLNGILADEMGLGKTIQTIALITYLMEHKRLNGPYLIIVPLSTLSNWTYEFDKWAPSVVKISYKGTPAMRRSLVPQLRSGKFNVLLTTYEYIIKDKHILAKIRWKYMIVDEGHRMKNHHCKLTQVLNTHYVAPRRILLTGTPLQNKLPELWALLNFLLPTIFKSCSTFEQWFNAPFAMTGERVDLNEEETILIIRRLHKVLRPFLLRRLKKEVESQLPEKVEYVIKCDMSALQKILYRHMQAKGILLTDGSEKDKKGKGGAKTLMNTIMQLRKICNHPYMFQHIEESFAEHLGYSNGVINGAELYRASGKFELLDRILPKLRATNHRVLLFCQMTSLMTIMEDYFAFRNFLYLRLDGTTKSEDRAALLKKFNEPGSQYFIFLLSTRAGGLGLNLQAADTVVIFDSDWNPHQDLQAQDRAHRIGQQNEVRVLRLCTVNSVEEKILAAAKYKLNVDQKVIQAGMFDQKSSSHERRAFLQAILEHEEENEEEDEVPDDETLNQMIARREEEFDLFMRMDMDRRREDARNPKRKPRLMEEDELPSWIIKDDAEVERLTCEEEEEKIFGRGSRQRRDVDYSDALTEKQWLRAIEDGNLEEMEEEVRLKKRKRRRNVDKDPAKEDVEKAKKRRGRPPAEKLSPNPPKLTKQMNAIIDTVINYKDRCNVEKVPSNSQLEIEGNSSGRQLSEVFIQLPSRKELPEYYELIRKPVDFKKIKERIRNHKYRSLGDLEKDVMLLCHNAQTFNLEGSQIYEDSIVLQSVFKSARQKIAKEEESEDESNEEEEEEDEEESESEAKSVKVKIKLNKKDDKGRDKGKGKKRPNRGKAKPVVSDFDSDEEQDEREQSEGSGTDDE

Row | Structure (SMILES) | DC50 [nM] | Dmax [%]
1 | Cc1ncsc1-c1ccc([C@H](C)NC(=O)[C@@H]2C[C@@H](O)CN2C(=O)[C@H](c2cc(OCCOC(=O)N3CCC(O[C@H]4C[C@H](Oc5cc(N6C7CCC6CN(c6cc(-c8ccccc8O)nnc6N)C7)ccn5)C4)CC3)no2)C(C)C)cc1 [Compound 134, 2-({5-[(2S)-1-[(2S,4R)-4-hydroxy-2-{[(1S)-1-[4-(4-methyl-1,3-thiazol-5-yl)phenyl]ethyl]carbamoyl}pyrrolidin-1-yl]-3-methyl-1-oxobutan-2-yl]-1,2-oxazol-3-yl}oxy)ethyl 4-[(1r,3r)-3-[(4-{3-[3-amino-6-(2-hydroxyphenyl)pyridazin-4-yl]-3,8-diazabicyclo[3.2.1]octan-8-yl}pyridin-2-yl)oxy]cyclobutoxy]piperidine-1-carboxylate] | ≥ 30 | 
2 | Cc1ncsc1-c1ccc([C@H](C)NC(=O)[C@@H]2C[C@@H](O)CN2C(=O)[C@@H](c2cc(N3CCC(CN4CCC5(CC4)CC(N4CCO[C@@H]([C@H](C)n6cc(C#Cc7cc(-c8ccccc8O)nnc7N)cn6)C4)C5)CC3)no2)C(C)C)cc1 [Compound 97, (2S,4R)-1-[(2R)-2-{3-[4-({2-[(2R)-2-[(1S)-1-(4-{2-[3-amino-6-(2-hydroxyphenyl)pyridazin-4-yl]ethynyl}-1H-pyrazol-1-yl)ethyl]morpholin-4-yl]-7-azaspiro[3.5]nonan-7-yl}methyl)piperidin-1-yl]-1,2-oxazol-5-yl}-3-methylbutanoyl]-4-hydroxy-N-[(1S)-1-[4-(4-methyl-1,3-thiazol-5-yl)phenyl]ethyl]pyrrolidine-2-carboxamide] | < 2.5 | > 75
3 | Cc1ncsc1-c1ccc([C@H](C)NC(=O)[C@@H]2C[C@@H](O)CN2C(=O)[C@@H](c2cc(N3CCC(CN4CCC(O[C@H]5C[C@H](N6CCN(CC7(O)CCN(c8cc(-c9ccccc9O)nnc8N)CC7)CC6)C5)CC4)CC3)no2)C(C)C)cc1 [Compound 57, (2S,4R)-4-hydroxy-N-[(1S)-1-[4-(4-methyl-1,3-thiazol-5-yl)phenyl]ethyl]-1-[(2R)-3-methyl-2-{3-[4-({4-[(1r,3r)-3-[4-({1-[3-amino-6-(2-hydroxyphenyl)pyridazin-4-yl]-4-hydroxypiperidin-4-yl}methyl)piperazin-1-yl]cyclobutoxy]piperidin-1-yl}methyl)piperidin-1-yl]-1,2-oxazol-5-yl}butanoyl]pyrrolidine-2-carboxamide] | < 2.5 | > 75
4 | CC(C)[C@@H](C(=O)N1C[C@H](O)C[C@H]1C(=O)N[C@@H](C)c1ccc(-c2c(F)cnn2C)cc1)c1cc(N2CCC(CN3CCC(O[C@H]4C[C@H](Oc5cc(N6CCN(c7cc(-c8ccccc8O)nnc7N)CC6)ccn5)C4)CC3)CC2)no1 [Compound 40, (2S,4R)-N-[(1S)-1-[4-(4-fluoro-1-methyl-1H-pyrazol-5-yl)phenyl]ethyl]-4-hydroxy-1-[(2R)-3-methyl-2-{3-[4-({4-[(1r,3r)-3-[(4-{4-[3-amino-6-(2-hydroxyphenyl)pyridazin-4-yl]piperazin-1-yl}pyridin-2-yl)oxy]cyclobutoxy]piperidin-1-yl}methyl)piperidin-1-yl]-1,2-oxazol-5-yl}butanoyl]pyrrolidine-2-carboxamide] | < 2.5 | > 75
5 | Cc1ncsc1-c1ccc([C@H](C)NC(=O)[C@@H]2C[C@@H](O)CN2C(=O)[C@H](c2cc(N3CCC(n4cnc(CN5CCC(O[C@H]6C[C@H](Oc7cc(N8C9CCC8CN(c8cc(-c%10ccccc%10O)nnc8N)C9)ccn7)C6)CC5)c4)CC3)no2)C(C)C)cc1 [Compound 12, (2S,4R)-4-hydroxy-N-[(1S)-1-[4-(4-methyl-1,3-thiazol-5-yl)phenyl]ethyl]-1-[(2S)-3-methyl-2-(3-{4-[4-({4-[(1r,3r)-3-[(4-{3-[3-amino-6-(2-hydroxyphenyl)pyridazin-4-yl]-3,8-diazabicyclo[3.2.1]octan-8-yl}pyridin-2-yl)oxy]cyclobutoxy]piperidin-1-yl}methyl)-1H-imidazol-1-yl]piperidin-1-yl}-1,2-oxazol-5-yl)butanoyl]pyrrolidine-2-carboxamide] | ≥ 30 | 
6 | CC(C)[C@@H](C(=O)N1C[C@H](O)C[C@H]1C(=O)N[C@@H](C)c1ccc(C#N)cc1)c1cc(N2CCC(CN3CCC(O[C@H]4C[C@H](Oc5cc(N6C7CC6CN(c6cc(-c8ccccc8O)nnc6N)C7)ccn5)C4)CC3)CC2)no1 [Compound 17, (2S,4R)-N-[(1S)-1-(4-cyanophenyl)ethyl]-4-hydroxy-1-[(2R)-3-methyl-2-{3-[4-({4-[(1r,3r)-3-[(4-{3-[3-amino-6-(2-hydroxyphenyl)pyridazin-4-yl]-3,6-diazabicyclo[3.1.1]heptan-6-yl}pyridin-2-yl)oxy]cyclobutoxy]piperidin-1-yl}methyl)piperidin-1-yl]-1,2-oxazol-5-yl}butanoyl]pyrrolidine-2-carboxamide] | < 2.5 | > 75
7 | CC(C)[C@H](C(=O)N1C[C@H](O)C[C@H]1C(=O)N[C@@H](C)c1ccc(C#N)cc1)c1cc(N2CCC(C(=O)N3CCC(O[C@H]4C[C@H](Oc5cc(N6C7CCC6CN(c6cc(-c8ccccc8O)nnc6N)C7)ccn5)C4)CC3)CC2)no1 [Compound 137, (2S,4R)-N-[(1S)-1-(4-cyanophenyl)ethyl]-4-hydroxy-1-[(2S)-3-methyl-2-[3-(4-{4-[(1r,3r)-3-[(4-{3-[3-amino-6-(2-hydroxyphenyl)pyridazin-4-yl]-3,8-diazabicyclo[3.2.1]octan-8-yl}pyridin-2-yl)oxy]cyclobutoxy]piperidine-1-carbonyl}piperidin-1-yl)-1,2-oxazol-5-yl]butanoyl]pyrrolidine-2-carboxamide] | ≥ 30 | 
8 | Cc1ncsc1-c1ccc([C@H](C)NC(=O)[C@@H]2C[C@@H](O)CN2C(=O)[C@@H](c2cc(N3CCC(CN4CCC(O[C@H]5C[C@@H](N6CCC([C@H](C)n7cc(-c8cc(-c9ccccc9O)nnc8N)cn7)CC6)C5)CC4)CC3)no2)C(C)C)cc1 [Compound 8, (2S,4R)-4-hydroxy-N-[(1S)-1-[4-(4-methyl-1,3-thiazol-5-yl)phenyl]ethyl]-1-[(2R)-3-methyl-2-{3-[4-({4-[(1s,3s)-3-{4-[(1S)-1-{4-[3-amino-6-(2-hydroxyphenyl)pyridazin-4-yl]-1H-pyrazol-1-yl}ethyl]piperidin-1-yl}cyclobutoxy]piperidin-1-yl}methyl)piperidin-1-yl]-1,2-oxazol-5-yl}butanoyl]pyrrolidine-2-carboxamide] | < 2.5 | > 75
9 | Cc1ncsc1-c1ccc([C@H](C)NC(=O)[C@@H]2C[C@@H](O)CN2C(=O)[C@@H](c2cc(N3CCC(CN4CCC5(CC4)CC(N4CCO[C@@H]([C@@H](C)n6cc(C#Cc7cc(-c8ccccc8O)nnc7N)cn6)C4)C5)CC3)no2)C(C)C)cc1 [Compound 99, (2S,4R)-1-[(2R)-2-{3-[4-({2-[(2R)-2-[(1R)-1-(4-{2-[3-amino-6-(2-hydroxyphenyl)pyridazin-4-yl]ethynyl}-1H-pyrazol-1-yl)ethyl]morpholin-4-yl]-7-azaspiro[3.5]nonan-7-yl}methyl)piperidin-1-yl]-1,2-oxazol-5-yl}-3-methylbutanoyl]-4-hydroxy-N-[(1S)-1-[4-(4-methyl-1,3-thiazol-5-yl)phenyl]ethyl]pyrrolidine-2-carboxamide] | < 2.5 | > 75
